Measurements reported in ChEMBL document CHEMBL5154927, “Discovery of Novel Bicyclic Phenylselenyl-Containing Hybrids: An Orally Bioavailable, Potential, and Multiacting Class of Estrogen Receptor Modulators against Endocrine-Resistant Breast Cancer” (J Med Chem, 2022).
The source made the active and inactive calls. The calls are words filed in the database; no cut-off is given here.

Assays:
MCF7 [1] = assay: Induction of apoptosis in human MCF7 cells assessed as total apoptotic cells at 1 uM incubated for 48 hrs by annexin V-FITC staining based flow cytometry; format: functional
MCF7 [2] = assay: Induction of mitochondrial membrane potential loss in human MCF7 cells at 1 uM incubated for 48 hrs by JC-1 staining based flow cytometry relative to control; format: functional
MCF7 [3] = assay: Antitumor activity against human MCF7 cells xenografted in BALB/C mouse assessed as decrease in cell proliferation at 20 mg/kg, po by Ki67 staining based immunohistochemical analysis; format: functional, organism-based
MCF7 [4] = assay: Induction of apoptosis in human MCF7 cells assessed as increase in Bax level at 0.5 to 4 uM incubated for 48 hrs by western blot analysis; format: functional, cell-based; conditions: dose 0.5-4 µM
[5] = Half life in BALB/C mouse at 5 mg/kg, iv by LC-MS/MS analysis; format: ADME, organism-based; conditions: in vivo
MCF7 [6] = assay: Induction of apoptosis in human MCF7 cells assessed as total apoptotic cells at 4 uM incubated for 48 hrs by annexin V-FITC staining based flow cytometry; format: functional
[7] = Tmax in BALB/C mouse at 20 mg/kg, po by LC-MS/MS analysis; format: ADME, organism-based; conditions: in vivo
[8] = target: T1, Hexokinase-1 (Homo sapiens) (UniProt P19367); assay: Binding affinity to hexokinase-1 in human MCF7 cell lysate measured after overnight incubation by LC-MS/MS analysis; format: subcellular; conditions: filed as antagonist, time 14.0 hrs
T1 sequence (whole entry): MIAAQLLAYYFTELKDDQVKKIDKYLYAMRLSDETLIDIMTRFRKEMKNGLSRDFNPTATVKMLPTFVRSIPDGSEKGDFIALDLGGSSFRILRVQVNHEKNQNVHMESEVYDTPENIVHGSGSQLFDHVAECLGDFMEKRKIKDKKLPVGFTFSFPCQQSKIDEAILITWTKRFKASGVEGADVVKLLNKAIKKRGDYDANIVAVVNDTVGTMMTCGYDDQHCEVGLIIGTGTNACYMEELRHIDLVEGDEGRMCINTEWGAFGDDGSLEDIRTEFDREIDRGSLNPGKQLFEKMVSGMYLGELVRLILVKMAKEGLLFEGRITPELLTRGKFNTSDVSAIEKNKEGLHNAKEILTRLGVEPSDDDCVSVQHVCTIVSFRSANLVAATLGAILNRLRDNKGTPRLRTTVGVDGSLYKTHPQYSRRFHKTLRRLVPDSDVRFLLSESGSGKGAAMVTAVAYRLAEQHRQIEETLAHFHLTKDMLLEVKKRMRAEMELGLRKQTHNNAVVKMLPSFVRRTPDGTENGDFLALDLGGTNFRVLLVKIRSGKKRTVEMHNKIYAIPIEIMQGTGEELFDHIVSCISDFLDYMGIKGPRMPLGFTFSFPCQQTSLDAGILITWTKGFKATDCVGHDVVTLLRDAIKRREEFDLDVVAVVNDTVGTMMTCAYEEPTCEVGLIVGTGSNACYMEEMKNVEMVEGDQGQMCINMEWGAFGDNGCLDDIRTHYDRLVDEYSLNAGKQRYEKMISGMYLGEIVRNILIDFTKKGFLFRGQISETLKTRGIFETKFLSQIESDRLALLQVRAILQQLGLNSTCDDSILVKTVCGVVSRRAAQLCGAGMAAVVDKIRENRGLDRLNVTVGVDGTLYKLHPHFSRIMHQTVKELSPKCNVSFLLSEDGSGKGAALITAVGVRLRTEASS

[9] = Cmax in BALB/C mouse at 5 mg/kg, iv by LC-MS/MS analysis; format: ADME, organism-based; set-up: dose 5 mg/kg, route iv; conditions: in vivo
LCC2 [10] = assay: Induction of mitochondrial membrane potential loss in tamoxifen-resistant human LCC2 cells at 5 to 30 uM incubated for 48 hrs by JC-1 staining based flow cytometry; format: functional, cell-based; conditions: dose 5-30 µM
LCC2 [11] = assay: Downregulation of hexokinase-1 expression in tamoxifen-resistant human LCC2 cell mitochondria at 20 uM measured after 24 hrs by DAPI staining based immunofluorescence microscopy; format: functional
[12] = Half life in BALB/C mouse at 20 mg/kg, po by LC-MS/MS analysis; format: ADME, organism-based; conditions: in vivo
[13] = Clearance in BALB/C mouse at 5 mg/kg, iv by LC-MS/MS analysis; format: ADME, organism-based; conditions: in vivo
MCF7 [14] = assay: Antitumor activity against human MCF7 cells xenografted in BALB/C mouse assessed as suppression of tumor growth at 10 to 20 mg/kg, po measured every 2 days for 34 days; format: functional, organism-based; conditions: dose 10-20 mg/kg, time 34.0 day
LCC2 [15] = assay: Induction of apoptosis in tamoxifen-resistant human LCC2 cells assessed as increase in Bax level at 5 to 30 uM incubated for 48 hrs by western blot analysis; format: functional, cell-based; conditions: dose 5-30 µM
[16] = Tmax in BALB/C mouse at 5 mg/kg, iv by LC-MS/MS analysis; format: ADME, organism-based; conditions: in vivo
[17] = AUC in BALB/C mouse at 5 mg/kg, iv by LC-MS/MS analysis; format: ADME, organism-based; set-up: dose 5 mg/kg, route iv; conditions: in vivo
MCF7 [18] = assay: Induction of apoptosis in human MCF7 cells assessed as increase in late apoptotic cells at 0.5 to 4 uM incubated for 48 hrs by annexin V-FITC staining based flow cytometry; format: functional, cell-based; conditions: dose 0.5-4 µM
MCF7 [19] = assay: Induction of ROS production in human MCF7 cells at 1 to 4 uM measured after 48 hrs by DCFH-DA staining based confocal laser scanning microscopic method; format: functional, cell-based; conditions: dose 1-4 µM
MCF7 [20] = assay: Induction of mitochondrial membrane potential loss in human MCF7 cells at 4 uM incubated for 48 hrs by JC-1 staining based flow cytometry relative to control; format: functional
MCF7 [21] = assay: Downregulation of hexokinase-1 expression in human MCF7 cell outer mitochondrial membrane at 1 to 16 uM measured after 24 hrs by Western blot analysis; format: functional; conditions: Mitochondria, dose 1-16 µM
LCC2 [22] = assay: Downregulation of hexokinase-1 expression in tamoxifen-resistant human LCC2 cell outer mitochondrial membrane measured after 24 hrs by Western blot analysis; format: functional; conditions: Mitochondria
MCF7 [23] = assay: Induction of mitochondrial membrane potential loss in human MCF7 cells incubated for 48 hrs by JC-1 staining based flow cytometry; format: functional, cell-based; conditions: dose 1-4 µM, DDE = dose-dependent effect
[24] = target: T1, Hexokinase-1 (Homo sapiens); assay: Inhibition of human recombinant hexokinase-1 assessed as NADPH generation measured after 1 hr by HPLC analysis; conditions: DDE = dose-dependent effect
LCC2 [25] = assay: Induction of apoptosis in tamoxifen-resistant human LCC2 cells assessed as increase in late apoptotic cells at 5 to 30 uM incubated for 48 hrs by annexin V-FITC staining based flow cytometry; format: functional, cell-based; conditions: dose 5-30 µM
[26] = Toxicity in BALB/C mouse xenografted with human MCF7 cells assessed as mortality at 10 to 20 mg/kg, po measured after 34 days; format: organism-based; conditions: in vivo, 816 h, dose 10-20 mg/kg, time 34 day
MCF7 [27] = assay: Induction of apoptosis in human MCF7 cells assessed as decrease in Bcl2 level at 0.5 to 4 uM incubated for 48 hrs by western blot analysis; format: functional, cell-based; conditions: dose 0.5-4 µM
MCF7 [28] = assay: Antitumor activity against human MCF7 cells xenografted in BALB/C mouse assessed as reduction of tumor weight at 20 mg/kg, po measured every 2 days for 34 days; format: functional, organism-based; conditions: time 34.0 day
MCF7 [29] = assay: Induction of apoptosis in human MCF7 cells assessed as decrease in Bcl-2/Bax ratio by western blot analysis; format: functional, cell-based; conditions: DDE = dose-dependent effect

With `O=S(=O)(Oc1cccc2ccccc12)C1CC2OC1C(c1ccc([Se]c3ccccc3)cc1)=C2c1ccc(O)cc1` (centres undefined) the Activity (MCF7 [1]) was 15.15%, the Activity (MCF7 [2]) was 9.61% and the Activity (MCF7 [3]) was “Active”. For the same compound, the Activity (MCF7 [4]) was “Active”, the half-life [5] was 4.65 h and the Activity (MCF7 [6]) was 19.98%. For the same compound, the Tmax [7] was 2 h, the Activity [8] was “Active” and the Cmax [9] was 1490 ng/mL. For the same compound, the Activity (LCC2 [10]) was “Active”, the Activity (LCC2 [11]) was “Active” and the half-life [12] was 0.93 h. For the same compound, the clearance [13] was 52.7 mL/min/kg, the Activity (MCF7 [14]) was “Active” and the Activity (LCC2 [15]) was “Active”. The Tmax [16] was 4.98 min, the AUC [17] was 1550 ng·h/mL and the Activity (MCF7 [18]) was “Active”. For the same compound, the Activity (MCF7 [19]) was “Active”, the Activity (MCF7 [20]) was 13.87% and the Activity (MCF7 [21]) was “Active”. The Activity (LCC2 [22]) was “Active”, the Activity (MCF7 [23]) was “Dde” and the Activity [24] was “Dde”. The Activity (LCC2 [25]) was “Active”, the Activity [26] was “Non-Toxic” and the Activity (MCF7 [27]) was “Active”. The Activity (MCF7 [28]) was “Active” and the Activity (MCF7 [29]) was “Dde”.
